Data from BindingDB's records for doi:10.1021/jm9604437 (Hoechst Marion Roussel, 1996).

How the values were obtained:
[1] = biological target: Dihydroorotate dehydrogenase (quinone), mitochondrial (Mus musculus, UniProt O35435); assay: Inhibitory concentration tested on enzyme dihydroorotate dehydrogenase in mouse
[2] = biological target: Dihydroorotate dehydrogenase (quinone), mitochondrial (Rattus norvegicus, UniProt Q63707); assay: Inhibitory concentration tested against enzyme dihydroorotate dehydrogenase in rat
Dihydroorotate dehydrogenase (quinone), mitochondrial (Rattus norvegicus, UniProt Q63707), sequence (Q63707 whole entry): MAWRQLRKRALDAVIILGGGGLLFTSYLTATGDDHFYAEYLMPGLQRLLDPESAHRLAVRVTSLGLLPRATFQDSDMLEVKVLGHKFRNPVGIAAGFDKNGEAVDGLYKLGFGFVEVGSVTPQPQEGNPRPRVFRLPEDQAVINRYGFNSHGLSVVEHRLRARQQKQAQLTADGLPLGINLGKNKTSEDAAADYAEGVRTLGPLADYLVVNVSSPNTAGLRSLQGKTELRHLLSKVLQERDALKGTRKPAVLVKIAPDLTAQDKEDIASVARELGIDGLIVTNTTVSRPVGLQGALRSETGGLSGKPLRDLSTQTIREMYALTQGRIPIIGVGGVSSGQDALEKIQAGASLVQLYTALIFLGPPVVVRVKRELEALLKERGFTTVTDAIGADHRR

Dihydroorotate dehydrogenase (quinone), mitochondrial (Mus musculus, UniProt O35435), sequence (O35435 whole entry): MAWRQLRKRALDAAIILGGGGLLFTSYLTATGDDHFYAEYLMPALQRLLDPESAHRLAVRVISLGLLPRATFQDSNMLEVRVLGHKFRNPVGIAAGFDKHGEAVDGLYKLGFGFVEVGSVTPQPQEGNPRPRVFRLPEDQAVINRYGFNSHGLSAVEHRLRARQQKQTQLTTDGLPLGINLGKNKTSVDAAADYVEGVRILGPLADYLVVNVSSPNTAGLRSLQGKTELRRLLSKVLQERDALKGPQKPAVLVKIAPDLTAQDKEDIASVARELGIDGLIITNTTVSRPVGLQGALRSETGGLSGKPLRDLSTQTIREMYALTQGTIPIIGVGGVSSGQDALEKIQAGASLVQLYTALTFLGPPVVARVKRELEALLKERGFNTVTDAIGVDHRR

Row | Structure (SMILES) | IC50 [1] | IC50 [2]
1 | CC=CC(=O)C(C#N)C(=O)Nc1ccc(C(F)(F)F)cc1 (centres undefined) | 0.063 µM | –
2 | N#CC(C(=O)Nc1ccc(C(F)(F)F)cc1)C(=O)c1ccc(C(F)(F)F)cc1 (centres undefined) [2-Cyano-3-hydroxy-3,N-bis-(4-trifluoromethyl-phenyl)-acrylamide] | > 100 µM | > 100 µM
3 | N#CC(C(=O)Nc1ccccc1C(F)(F)F)C(=O)C1CC1 (centres undefined) [(Z)-2-Cyano-3-cyclopropyl-3-hydroxy-N-(2-trifluoromethyl-phenyl)-acrylamide] | > 100 µM | > 100 µM

The remaining lines, values ahead:

Row | IC50 [1] | IC50 [2] | Structure (SMILES)
4 | > 100 µM | > 100 µM | CN1CCCC1C(=O)C(C#N)C(=O)Nc1ccc(C(F)(F)F)cc1 (centres undefined) [(Z)-2-Cyano-3-hydroxy-3-(1-methyl-pyrrolidin-2-yl)-N-(4-trifluoromethyl-phenyl)-acrylamide]
5 | > 100 µM | > 100 µM | N#CC(C(=O)Nc1ccc(C(F)(F)F)cc1)C(=O)C1CCCN1 (centres undefined) [(Z)-2-Cyano-3-hydroxy-3-pyrrolidin-2-yl-N-(4-trifluoromethyl-phenyl)-acrylamide]
